In publication doi:10.1101/2021.02.21.432137v1 (biorxiv, 2021):

Legend:
Conditions in all cases: binder
JAK2 = JAK2 (Homo sapiens, UniProt O60674)
LRRK2 = LRRK2 (Homo sapiens, UniProt Q5S007)
MAP3K15 = molecular target: T1, MAP3K15 (Homo sapiens, UniProt Q6ZN16)
T1 sequence (Q6ZN16 1-1313): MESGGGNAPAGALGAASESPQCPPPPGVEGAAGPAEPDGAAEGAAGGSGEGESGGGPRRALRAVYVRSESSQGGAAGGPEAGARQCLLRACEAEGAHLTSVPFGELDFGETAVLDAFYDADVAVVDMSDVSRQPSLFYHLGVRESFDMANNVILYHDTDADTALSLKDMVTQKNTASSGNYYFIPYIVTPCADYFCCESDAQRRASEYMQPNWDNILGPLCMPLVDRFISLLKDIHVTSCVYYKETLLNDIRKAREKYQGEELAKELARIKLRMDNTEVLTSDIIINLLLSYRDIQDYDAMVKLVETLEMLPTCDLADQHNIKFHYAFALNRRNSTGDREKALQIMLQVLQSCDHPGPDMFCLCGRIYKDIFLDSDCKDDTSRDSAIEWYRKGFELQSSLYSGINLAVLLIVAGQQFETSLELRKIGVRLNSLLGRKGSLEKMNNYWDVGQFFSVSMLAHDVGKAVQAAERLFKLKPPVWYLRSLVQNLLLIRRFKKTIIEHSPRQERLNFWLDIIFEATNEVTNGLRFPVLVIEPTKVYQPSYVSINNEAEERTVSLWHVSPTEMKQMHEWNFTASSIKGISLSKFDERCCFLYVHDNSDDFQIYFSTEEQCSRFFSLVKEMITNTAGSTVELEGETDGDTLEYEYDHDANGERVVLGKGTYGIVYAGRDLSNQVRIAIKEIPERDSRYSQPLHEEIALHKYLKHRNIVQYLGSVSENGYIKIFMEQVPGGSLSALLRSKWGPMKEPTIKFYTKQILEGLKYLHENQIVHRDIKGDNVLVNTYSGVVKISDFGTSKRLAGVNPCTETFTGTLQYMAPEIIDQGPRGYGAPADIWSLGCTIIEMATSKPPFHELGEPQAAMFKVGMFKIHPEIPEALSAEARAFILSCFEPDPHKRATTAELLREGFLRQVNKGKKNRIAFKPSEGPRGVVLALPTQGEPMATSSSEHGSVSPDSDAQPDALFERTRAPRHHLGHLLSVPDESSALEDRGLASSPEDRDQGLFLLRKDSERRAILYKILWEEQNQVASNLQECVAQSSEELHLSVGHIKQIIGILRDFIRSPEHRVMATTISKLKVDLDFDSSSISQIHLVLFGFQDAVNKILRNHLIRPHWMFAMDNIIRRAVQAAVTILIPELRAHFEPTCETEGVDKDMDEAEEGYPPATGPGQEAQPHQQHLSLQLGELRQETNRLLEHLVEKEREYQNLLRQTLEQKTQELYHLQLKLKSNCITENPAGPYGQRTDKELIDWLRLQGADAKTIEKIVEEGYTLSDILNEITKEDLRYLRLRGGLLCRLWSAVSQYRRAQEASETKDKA

STK3 (MST2) = molecular target: T2, STK3 (MST2) (Homo sapiens, UniProt Q13188)
T2 sequence (Q13188 1-491): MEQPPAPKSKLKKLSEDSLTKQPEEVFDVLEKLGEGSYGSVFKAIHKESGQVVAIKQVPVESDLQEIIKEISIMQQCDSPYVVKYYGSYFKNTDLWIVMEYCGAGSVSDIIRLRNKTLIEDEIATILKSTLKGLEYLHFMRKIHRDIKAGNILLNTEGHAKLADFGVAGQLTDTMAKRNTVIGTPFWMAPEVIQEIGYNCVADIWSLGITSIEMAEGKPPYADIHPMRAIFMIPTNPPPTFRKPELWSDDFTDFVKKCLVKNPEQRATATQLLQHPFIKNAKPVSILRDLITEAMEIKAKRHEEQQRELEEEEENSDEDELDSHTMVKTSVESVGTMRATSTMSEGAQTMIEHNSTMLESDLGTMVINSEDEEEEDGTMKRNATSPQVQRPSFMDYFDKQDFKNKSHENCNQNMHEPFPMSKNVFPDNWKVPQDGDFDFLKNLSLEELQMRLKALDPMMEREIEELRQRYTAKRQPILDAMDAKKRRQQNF

Chain of JAK2 (O60674 whole entry): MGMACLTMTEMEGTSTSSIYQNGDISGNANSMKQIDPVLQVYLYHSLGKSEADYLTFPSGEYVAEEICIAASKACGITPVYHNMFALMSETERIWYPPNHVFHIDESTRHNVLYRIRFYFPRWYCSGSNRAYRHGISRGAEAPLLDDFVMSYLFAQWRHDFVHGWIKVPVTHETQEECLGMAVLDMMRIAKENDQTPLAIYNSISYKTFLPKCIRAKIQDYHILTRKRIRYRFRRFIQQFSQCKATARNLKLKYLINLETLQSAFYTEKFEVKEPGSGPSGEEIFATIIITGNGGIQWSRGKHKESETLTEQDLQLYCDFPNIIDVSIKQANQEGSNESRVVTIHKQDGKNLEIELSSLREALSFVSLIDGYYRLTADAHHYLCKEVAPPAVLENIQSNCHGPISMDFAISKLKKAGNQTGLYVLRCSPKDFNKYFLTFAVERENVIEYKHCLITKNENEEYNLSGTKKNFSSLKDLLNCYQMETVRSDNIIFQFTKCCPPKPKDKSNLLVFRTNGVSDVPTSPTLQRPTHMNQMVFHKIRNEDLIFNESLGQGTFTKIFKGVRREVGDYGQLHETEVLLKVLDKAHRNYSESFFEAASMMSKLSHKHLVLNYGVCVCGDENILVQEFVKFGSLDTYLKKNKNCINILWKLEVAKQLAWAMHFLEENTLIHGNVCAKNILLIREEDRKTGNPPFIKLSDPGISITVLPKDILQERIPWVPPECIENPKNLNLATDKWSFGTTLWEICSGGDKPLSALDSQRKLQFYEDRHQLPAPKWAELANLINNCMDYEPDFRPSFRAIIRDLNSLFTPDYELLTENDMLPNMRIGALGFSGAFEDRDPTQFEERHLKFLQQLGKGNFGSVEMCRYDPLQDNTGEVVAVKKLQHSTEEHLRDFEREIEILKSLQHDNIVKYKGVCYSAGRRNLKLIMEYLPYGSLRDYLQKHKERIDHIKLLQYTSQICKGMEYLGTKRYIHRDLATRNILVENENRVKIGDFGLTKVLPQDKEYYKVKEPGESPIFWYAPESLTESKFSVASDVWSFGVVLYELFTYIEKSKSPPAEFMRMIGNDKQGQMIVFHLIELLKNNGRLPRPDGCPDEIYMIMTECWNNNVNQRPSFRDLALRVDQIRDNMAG
Chain of LRRK2 (Q5S007 whole entry): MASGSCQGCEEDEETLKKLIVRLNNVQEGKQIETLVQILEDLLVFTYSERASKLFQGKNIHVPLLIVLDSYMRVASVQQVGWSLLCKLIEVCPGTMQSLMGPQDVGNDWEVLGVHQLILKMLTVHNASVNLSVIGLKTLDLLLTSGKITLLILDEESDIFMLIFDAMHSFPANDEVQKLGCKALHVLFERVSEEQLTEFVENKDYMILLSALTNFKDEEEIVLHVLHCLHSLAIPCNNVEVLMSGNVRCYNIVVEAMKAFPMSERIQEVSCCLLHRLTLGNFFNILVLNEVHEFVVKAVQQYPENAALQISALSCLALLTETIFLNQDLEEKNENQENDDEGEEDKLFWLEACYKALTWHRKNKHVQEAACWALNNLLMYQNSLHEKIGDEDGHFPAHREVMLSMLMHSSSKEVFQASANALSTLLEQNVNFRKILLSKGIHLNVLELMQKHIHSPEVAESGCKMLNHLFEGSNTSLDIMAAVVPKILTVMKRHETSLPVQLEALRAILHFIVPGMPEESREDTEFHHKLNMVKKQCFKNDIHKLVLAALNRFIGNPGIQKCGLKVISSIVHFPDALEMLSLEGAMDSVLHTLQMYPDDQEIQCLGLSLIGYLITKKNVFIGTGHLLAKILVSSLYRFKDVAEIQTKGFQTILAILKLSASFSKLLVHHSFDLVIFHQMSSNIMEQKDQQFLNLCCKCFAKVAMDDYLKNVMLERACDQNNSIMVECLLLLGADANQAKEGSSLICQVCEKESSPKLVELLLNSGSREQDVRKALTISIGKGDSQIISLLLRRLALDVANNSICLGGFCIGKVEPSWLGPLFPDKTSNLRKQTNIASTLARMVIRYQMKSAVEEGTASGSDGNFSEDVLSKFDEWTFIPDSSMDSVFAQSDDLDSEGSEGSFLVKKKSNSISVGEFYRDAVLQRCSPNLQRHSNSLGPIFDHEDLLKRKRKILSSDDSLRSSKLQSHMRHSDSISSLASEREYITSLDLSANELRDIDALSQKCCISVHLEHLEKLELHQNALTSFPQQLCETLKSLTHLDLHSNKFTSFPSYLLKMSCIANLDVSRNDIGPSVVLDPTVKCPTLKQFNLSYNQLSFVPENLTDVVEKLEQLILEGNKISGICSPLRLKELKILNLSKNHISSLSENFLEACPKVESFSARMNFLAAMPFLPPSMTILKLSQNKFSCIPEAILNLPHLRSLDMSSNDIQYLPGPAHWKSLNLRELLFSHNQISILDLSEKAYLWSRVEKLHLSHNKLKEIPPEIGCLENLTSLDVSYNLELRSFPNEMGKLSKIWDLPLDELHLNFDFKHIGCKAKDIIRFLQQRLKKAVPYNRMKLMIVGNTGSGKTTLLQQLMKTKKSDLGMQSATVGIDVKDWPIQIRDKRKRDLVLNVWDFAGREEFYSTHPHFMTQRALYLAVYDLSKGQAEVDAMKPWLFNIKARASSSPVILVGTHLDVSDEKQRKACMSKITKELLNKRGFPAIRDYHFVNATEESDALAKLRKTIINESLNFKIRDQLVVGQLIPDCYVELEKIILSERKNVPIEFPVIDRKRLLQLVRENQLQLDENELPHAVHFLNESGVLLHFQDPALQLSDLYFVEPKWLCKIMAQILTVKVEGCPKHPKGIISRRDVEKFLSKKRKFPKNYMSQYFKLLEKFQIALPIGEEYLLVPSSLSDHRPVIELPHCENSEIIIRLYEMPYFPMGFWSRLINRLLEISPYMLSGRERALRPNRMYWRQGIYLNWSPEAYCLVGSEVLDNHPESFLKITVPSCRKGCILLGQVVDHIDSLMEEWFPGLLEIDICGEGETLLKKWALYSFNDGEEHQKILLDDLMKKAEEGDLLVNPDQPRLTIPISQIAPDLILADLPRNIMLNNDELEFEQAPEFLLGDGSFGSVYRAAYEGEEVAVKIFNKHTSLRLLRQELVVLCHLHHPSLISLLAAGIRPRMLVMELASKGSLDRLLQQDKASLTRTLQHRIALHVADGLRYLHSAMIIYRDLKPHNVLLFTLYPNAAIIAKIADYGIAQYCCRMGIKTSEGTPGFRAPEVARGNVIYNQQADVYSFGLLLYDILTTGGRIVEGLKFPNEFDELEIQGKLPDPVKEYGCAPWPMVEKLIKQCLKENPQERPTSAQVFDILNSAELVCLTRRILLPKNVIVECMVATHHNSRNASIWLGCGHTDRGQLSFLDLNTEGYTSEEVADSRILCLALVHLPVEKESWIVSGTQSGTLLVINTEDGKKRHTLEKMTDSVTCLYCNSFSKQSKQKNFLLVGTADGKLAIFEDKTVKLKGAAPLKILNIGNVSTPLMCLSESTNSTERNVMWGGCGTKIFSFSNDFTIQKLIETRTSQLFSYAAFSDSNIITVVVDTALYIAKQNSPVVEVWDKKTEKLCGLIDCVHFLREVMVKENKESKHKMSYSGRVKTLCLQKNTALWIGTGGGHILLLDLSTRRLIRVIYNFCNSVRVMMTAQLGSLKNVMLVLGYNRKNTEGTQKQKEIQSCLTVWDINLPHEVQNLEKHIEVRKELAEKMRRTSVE

Compound A1 PoC (JAK2): 0.4%
Compound A1 PoC (LRRK2): 2.1%
Compound A1 PoC (MAP3K15): 0%
Compound A1 PoC (STK3 (MST2)): 0%
Compound: C[C@H](NC(=O)c1c[nH]c2ncc(C3CC3)nc12)C(C)(C)C [A1, UNC-BE4-017]
